Assay [1] concerns NY-ESO-1 region consisting of amino acids 100-129. Briefly: ELISA with assay OLPs as coating antigens to determine epitopes recognized by induced IgG. It counts as in vivo, human. The note with it: accelerating the response, increasing titer, broadening antibody repertoire. As for the experimental part: In these experiments, the epitopes recognized by the NY-ESO-1 specific IgGs that were induced by immunization were determined. ELISAs were carried out, using standard methods, with the assay OLPs supra being used as coating antigens. Antibody titers of subjects were tested at week 16, with the exception of one sample, which was tested at week 13. IgG responses were most frequent and strongest against the NY-ESO-1 region consisting of amino acids 121-150. The NY-ESO-1 region consisting of amino acids 80-109 was also recognized frequently, and in the case of the NY-ESO-1 region consisting of amino acids 100-129, all patients who received the combination of the peptides, Montanide, and polyICLC had relevant antibodies, as did 4/9 of the patients who received the peptides in Montanide only. There was a much lower response to the NY-ESO-1 region consisting of amino acids 142-173. In all cases, polyICLC enhanced the humoral, immune response, not only by accelerating the response and increasing titer, but also by broadening antibody repertoire.
For orientation: An ELISA detects its analyte on a solid surface through an enzyme-linked reagent.

Assay [2] deals with CD4+ T cell lines. Briefly: Cytokine production of CD4+ T cell lines by sandwich ELISA. Type of assay: in vivo, human. As for the experimental part:
Equal amounts of CD4^+ T cell lines created supra, and autologous EBV-B cells (5×10^4) were co-cultured in 250 μl RPMI and 10% FCS. After the EBV-B cells had been pulsed overnight or not with the assay OLPs and cultured for 24 hours, supernatant was harvested, and stored at −20° C. until sandwich ELISAs were carried out using standard methods. The cytokines which were assayed included IFN-γ, GM-CSF, IL-4, IL-9, IL-10, IL-13, IL-17, and TGF-β. These are all known to be produced by different CD4^+ subsets.

For polyICLC, the “effect on humoral immune response” value in assay [1] is given as “enhanced”. Besides, the “IL-9 production by T cells following immunization” value in assay [2] (in vivo) is reported as “inhibited completely”. Further, in assay [2] (week 13 and 16), the “level of IL-4” value was “significantly suppressed”, the “level of IL-9” value is reported as “significantly suppressed” and the “level of IL-13” value is on record as “significantly suppressed”. In assay [2] (when polyICLC was used), the IL-9/IL-4 ratio result is given as “significantly lower”.

(Values after US20120328660A1, “IMMUNOGENIC COMPOSITIONS USEFUL IN PROVOKING AN INTEGRATED RESPONSE TO TUMOR ANTIGENS” (priority 2011, published 2012).)
